Literature values, collected in article PMC3309614 (Journal of the American Chemical Society, 2011).

System: kinesin-5 L214A
Details: L214A mutation in allosteric binding site

For S-Trityl-L-cyteine [STLC], the “effect of L214A mutation on inhibition” value is given as “known to suppress STLC inhibition”.
